Patent US20120252803A1, “COMPOSITION AND METHOD FOR CONTROLLING ARTHROPOD PESTS” (SUMITOMO CHEMICAL COMPANY, LIMITED, priority 2009, published 2012)

Assays:
[1] = system: Common cutworm (Spodoptela litura); experiment: Test Example 1: pesticidal effect of artificial diet irrigation treatment on Common cutworm; type: in vivo; conditions: artificial diet irrigated with 2 mL test solution, fourth instar larvae, after 6 days
[2] = system: Common cutworm (Spodoptela litura); experiment: Test Example 2: pesticidal effect of artificial diet irrigation treatment on Common cutworm; type: in vivo; conditions: artificial diet irrigated with 2 mL test solution, fourth instar larvae, after 6 days
[3] = composition of the compound and esfenvalerate, Table 43
[4] = composition of the compound and fenpropathrin, Table 44
[5] = composition of the compound and esfenvalerate, Table 45
[6] = composition of the compound and fenpropathrin, Table 46

SMILES	pesticidal efficacy against Common cutworm (Spodoptela litura) [1, 3]	pesticidal efficacy against Common cutworm (Spodoptela litura) [1, 4]	pesticidal efficacy against Common cutworm (Spodoptela litura) [2, 5]	pesticidal efficacy against Common cutworm (Spodoptela litura) [2, 6]
FC(F)(F)c1ccc2oc(-c3ccncc3Cl)nc2c1 [Compound 18, 2-(3-chloropyridin-4-yl)-5-(trifluoromethyl)benzoxazole]	high pesticidal efficacy	high pesticidal efficacy		
FC(F)(F)COc1cnccc1-c1nc2cc(C(F)(F)F)ccc2o1 [Compound 39, 2-[3-(2,2,2-trifluoroethyl)oxypyridin-4-yl]-5-(trifluoromethyl)benzoxazole]			high pesticidal efficacy	high pesticidal efficacy
CC(C)Oc1cnccc1-c1nc2cc(C(F)(F)F)ccc2o1 [Compound 70, 2-(3-isopropoxypyridin-4-yl)-5-(trifluoromethyl)benzoxazole]	high pesticidal efficacy	high pesticidal efficacy		
FC(F)(F)Sc1ccc2oc(-c3ccncc3Cl)nc2c1 [Compound 77, 2-(3-chloropyridin-4-yl)-5-(trifluoromethylthio)benzoxazole]	high pesticidal efficacy	high pesticidal efficacy		
CCc1cnccc1-c1nc2cc(OC(F)(F)F)ccc2o1 [Compound 109, 2-(3-ethylpyridin-4-yl)-5-(trifluoromethoxy)benzoxazole]	high pesticidal efficacy	high pesticidal efficacy		
CC(C)COc1cnccc1-c1nc2cc(C(F)(F)F)ccc2o1 [Compound 116, 2-(3-isobutoxypyridin-4-yl)-5-(trifluoromethyl)benzoxazole]			high pesticidal efficacy	high pesticidal efficacy
CC(C)(C)COc1cnccc1-c1nc2cc(C(F)(F)F)ccc2o1 [Compound 117, 2-[3-(2,2-dimethylpropoxy)pyridin-4-yl]-5-(trifluoromethyl)benzoxazole]			high pesticidal efficacy	high pesticidal efficacy
FC(F)(F)c1ccc2oc(-c3ccncc3-c3cccnc3)nc2c1 [Compound 128, 4-(5-trifluoromethyl-benzoxazole-2-yl)-[3,3′]bipyridinyl]	high pesticidal efficacy	high pesticidal efficacy		
FC(F)(F)c1cnc2oc(-c3ccncc3Cl)nc2c1 [Compound 139, 2-(3-chloropyridin-4-yl)-6-(trifluoromethyl)oxazolo[5,4-b]pyridine]	high pesticidal efficacy	high pesticidal efficacy		
CCc1cnccc1-c1nc2cc(C(F)(F)F)cnc2o1 [Compound 143, 2-(3-ethylpyridin-4-yl)-6-(trifluoromethyl)oxazolo[5,4-b]pyridine]	high pesticidal efficacy	high pesticidal efficacy		
CSc1cnccc1-c1nc2cc(C(F)(F)F)cnc2o1 [Compound 146, 2-(3-methylthiopyridin-4-yl)-6-(trifluoromethyl)oxazolo[5,4-b]pyridine]	high pesticidal efficacy	high pesticidal efficacy		
FC(F)(F)COc1cnccc1-c1nc2cc(C(F)(F)F)cnc2o1 [Compound 163]			high pesticidal efficacy	high pesticidal efficacy
